Reference: PubChem BioAssay AID2060485 (Molecular Pharmacology Branch, DTP, NCI, 2025)

Test system: A375 multi-cell spheroids with HUVEC/MSC, viability
Test: Anticancer human tumor A375 cell line growth inhibition [GQUAD];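 also: spheroids exposed to compounds for seven days before readout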
Settings: for IC50: curve of first compound; for viability, T/C: stronger effect = lower value; active = viability on the fitted dose curve at most 10% of control; inactive = the rest
From the text: DNA G-quadruplex Stabilizer Agents in Combinations in Complex Spheroids
A high-throughput screen of multi-cell type tumor spheroids was designed to identify active combinations of DNA G-quadruplex stabilizer agents and targeted small molecules. Complex spheroids include a stromal component modeled by human endothelial cells (HUVEC) and fibroblasts modeled by human mesenchymal stem cells (MSCs). The concentration ranges selected for each drug and investigational agent were based upon clinically achievable concentrations if the clinical Cmax of the agent was known.
Compounds. The drugs and investigational agents: pidnarulex (CX-5461; NSC782164), APTO-253 (NSC789042), BRACO-19 (NSC847499), peposertib (NSC802822), ceralasertib (NSC780249), elimusertib (NSC800525), camonsertib (NSC841442), AZD-1390 (NSC803789), olaparib (NSC753686), talazoparib (NSC767125), ART-558 (NSC835418), sotorasib (NSC818433), MRTX-1133 (NSC836407), SN-38 (NSC673596), topotecan (NSC609699), etoposide (NSC141540), doxorubicin (NSC123127), gemcitabine (NSC613327), 5-fluorouracil (NSC19893), paclitaxel (NSC125973), vemurafenib (NSC761431), panobinostat (NSC761190), R-306465 (JNJ-16241199; NSC773264), adavosertib (NSC754352), TP-3654 (NSC805149), carboplatin (NSC241240), KSQ-4279 (NSC840948), and staurosporine (NSC755774) were obtained from the National Cancer Institute (NCI) Developmental Therapeutics Program Chemical Repository (34). The FDA-approved anticancer drug set is available from the NCI Developmental Therapeutics Program. […] The stock solutions were prepared in dimethyl sulfoxide (DMSO, Sigma-Aldrich, St. Louis, MO, cat. D2650) at 800-fold the tested concentration and stored at -70 degrees C prior to their use. All drugs and investigational agents were tested over a range starting from a high concentration at or near the clinical Cmax and decreasing in half-log increments. If the clinical Cmax for an agent had not been determined, the highest concentration tested was 10 microM.
2.3 Cell Culture. All cells were maintained in an incubator at 37 degrees C and 5% CO2 with 95% humidity. The PDC lines were cultured according to standard operating procedures established by the NCI PDMR. All PDCs were thawed and cultured in Matrigel-coated flasks prepared with a working solution of 1X Ham's F-12 nutrient mix, without supplementation (Invitrogen, cat. 11765054), 100 U/mL penicillin-streptomycin (Invitrogen, cat. 15140122), and 2.5% Matrigel (Corning Inc., cat. 354248) for the first three passages. The 857933-349-R-J2-PDC line was cultured in 6C/Colon 1B media, which includes advanced DMEM/F-12 (Thermo Fisher Scientific, cat. 12634028), 10 mM HEPES (Thermo Fisher Scientific, cat. 15630080), 1X GlutaMAX supplement (Thermo Fisher Scientific, cat. 35050061), 0.1 mg/mL primocin (InvivoGen, cat. ant-pm-2), 10% defined fetal bovine serum, heat inactivated (HyClone Laboratories Inc., cat. SH30070.03HI), 50% L-WRN conditioned media (ATCC, cat. CRL-3276), 1.25 mM N-Acetyl-L-cysteine (Sigma-Aldrich, cat. A9165), 10 mM nicotinamide (Sigma-Aldrich, cat. N0636), 1X B-27 supplement (Thermo Fisher Scientific, cat. 17504044), 1X N-2 supplement (Thermo Fisher Scientific, cat. 17502048), 10 microM Y-27632 dihydrochloride (Tocris Bioscience, cat. 1254), and 50 ng/mL human EGF recombinant protein (Thermo Fisher Scientific, cat. PHG0311). The 485176-168-R4-J1-PDC line was cultured in Panc media, which includes all 6C/Colon 1B media components plus 100 ng/mL human FGF-10 (Thermo Fisher Scientific, cat. 100-26), 500 nM SB-431542 (Selleckchem, cat. S1067), and gastrin (Tocris, cat. 3006).
[…]

C=CCn1c(=O)c2cnc(Nc3ccc(N4CCN(C)CC4)cc3)nc2n1-c1cccc(C(C)(C)O)n1 + Cc1cnc(CNC(=O)c2c(=O)c3ccc(N4CCCN(C)CC4)nc3n3c2sc2ccccc23)cn1
408 nM: IC50 (second compound 0.1 µM)
active: viability, T/C (second compound 0.0316 µM, first compound 10 µM) 9.5% | viability, T/C (second compound 0.1 µM, first compound 10 µM) 9.57%
96.7 nM: IC50 (second compound 0.316 µM)
< 31.6 nM: IC50 (second compound 1 µM) | IC50 (second compound 3.16 µM) | IC50 (second compound 10 µM)
900 nM: IC50 (second compound 0.0316 µM)
inactive: viability, T/C (second compound 0.0316 µM, first compound 0.0316 µM) 93.1% | viability, T/C (second compound 0.0316 µM, first compound 0.1 µM) 95.3% | viability, T/C (second compound 0.0316 µM, first compound 0.316 µM) 81% | viability, T/C (second compound 0.0316 µM, first compound 1 µM) 48.3% | viability, T/C (second compound 0.0316 µM, first compound 3.16 µM) 12.3% | viability, T/C (second compound 0.1 µM, first compound 0.0316 µM) 70.2% | viability, T/C (second compound 0.1 µM, first compound 0.1 µM) 69.7% | viability, T/C (second compound 0.1 µM, first compound 0.316 µM) 50.6% | viability, T/C (second compound 0.1 µM, first compound 1 µM) 38% | viability, T/C (second compound 0.1 µM, first compound 3.16 µM) 15.1% | viability, T/C (second compound 0.316 µM, first compound 0.0316 µM) 57.6% | viability, T/C (second compound 0.316 µM, first compound 0.1 µM) 50.6% | viability, T/C (second compound 0.316 µM, first compound 0.316 µM) 36.7% | viability, T/C (second compound 0.316 µM, first compound 1 µM) 28.1% | viability, T/C (second compound 0.316 µM, first compound 3.16 µM) 14.9% | viability, T/C (second compound 0.316 µM, first compound 10 µM) 10.7% | viability, T/C (second compound 1 µM, first compound 0.0316 µM) 37.1% | viability, T/C (second compound 1 µM, first compound 0.1 µM) 33.7% | viability, T/C (second compound 1 µM, first compound 0.316 µM) 31.6% | viability, T/C (second compound 1 µM, first compound 1 µM) 25.3% | viability, T/C (second compound 1 µM, first compound 3.16 µM) 16.1% | viability, T/C (second compound 1 µM, first compound 10 µM) 11.4% | viability, T/C (second compound 3.16 µM, first compound 0.0316 µM) 32% | viability, T/C (second compound 3.16 µM, first compound 0.1 µM) 33.6% | viability, T/C (second compound 3.16 µM, first compound 0.316 µM) 27.2% | viability, T/C (second compound 3.16 µM, first compound 1 µM) 25.7% | viability, T/C (second compound 3.16 µM, first compound 3.16 µM) 17% | viability, T/C (second compound 3.16 µM, first compound 10 µM) 12% | viability, T/C (second compound 10 µM, first compound 0.0316 µM) 28.8% | viability, T/C (second compound 10 µM, first compound 0.1 µM) 28.9% | viability, T/C (second compound 10 µM, first compound 0.316 µM) 26.8% | viability, T/C (second compound 10 µM, first compound 1 µM) 21.6% | viability, T/C (second compound 10 µM, first compound 3.16 µM) 16.8% | viability, T/C (second compound 10 µM, first compound 10 µM) 13.8%
